This note sets out measurements from patent EP3271365B1, “BI[…] AGENTS CONTAINING THE CTI PHARMACOPHORE” (Pfizer Inc., priority 2015, dated 2016).

The structures appear in SMILES notation. pIC50: −log10 of the molar value. A value given as a limit tells only on which side of the number the result lay.

Experiment in all cases: Cytotoxicity assay for payloads (MTS cell viability)
What all share (format): cell-based

For one test, the system named is HL60 (leukemia). The settings on record: Homo sapiens, HL-60, 96 h, HL60 cells, incubated four days, read-out: Free Payload Potencies HL60 (IC50). How it is done: (§1) Cancer cell lines were obtained from ATCC (Manassas, VA). N87 (human gastric carcinoma derived from metastatic liver site). HL60 (leukemia) and MDA-MB-361 DYT2 (human breast carcinoma MDA-MB-361) were grown in RPMI 1640 media . All media were supplemented with 10% fetal bovine serum, 1% sodium pyruvate, and 1% L-glutamine (Invitrogen, Grand Island, NY). Human umbilical vein endothelial cells (HUVEC) were obtained from Lonza (Allendale, NJ) and maintained in EGM2 media supplemented with EGM-2 SingleQuots (Lonza # CC-4176). All cells were maintained in a humidified incubator (37°C, 5% CO2).
(§2) Cells in 100 µl medium were cultured in a 96-well plate. Cancer cell lines treated with the indicated compounds by adding 50 µl of 3X stocks in duplicate at 10 concentrations. Cells were incubated with compounds for four days, then 30 µl of CellTiter® 96 AQueous One MTS Solution (Promega Cat # G3582) was added to the cells, incubated 1.5 hr at 37°C, then absorbance measured at 490 nm on a Victor plate reader (Perkin Elmer, Waltham, MA). Relative cell viability was determined as a percentage of untreated control wells. IC50 values were calculated using four parameter logistic model #203 with XLfit v4.2 (IDBS, Guildford, Surry, UK).

Test [1] has as its system N87 (human gastric carcinoma derived from metastatic liver site). The settings on record: 96 h, N87 cells, incubated four days, read-out: Free Payload Potencies N87 (IC50). How it is done:
as §1, §2

For test [2], the system named is MDA-MB-361 DYT2 (human breast carcinoma MDA-MB-361). The settings on record: 96 h, MDA-MB-361 DYT2 cells, incubated four days, read-out: Free Payload Potencies DYT2 (IC50). How it is done: as §1, §2

In the case of `CC(=O)Oc1cc2c(c3sc(C)cc13)[C@H](CCl)CN2C(=O)C12CC(C(=O)N3C[C@@H](CCl)c4c3cc(OC(C)=O)c3cc(C)sc43)(C1)C2` [Compound 17, bicyclo[1.1.1]pentane-1,3-diylbis[carbonyl(8S)-8-(chloromethyl)-2-methyl-7,8-dihydro-6H-thieno[2,3-e]indole-6,4-diyl] diacetate], the pIC50 in the test with HL60 (leukemia) is 10.08; in test [1] it was 8.89; in test [2], 8.22.
The like results for `CC(=O)Oc1cc2c(c3c(C)csc13)[C@H](CCl)CN2C(=O)CCCC(=O)N1C[C@@H](CCl)c2c1cc(OC(C)=O)c1scc(C)c21` [Compound 24, (8S,8'S)-glutaroylbis(8-(chloromethyl)-1-methyl-7,8-dihydro-6H-thieno[3,2-e]indole-6,4-diyl) diacetate] were, in that order, above 11.30, 10.62 and 9.77.
The like results for `Cc1csc2c(O)cc3c(c12)[C@H](CCl)CN3C(=O)CCCC(=O)N1C[C@@H](CCl)c2c1cc(O[C@@H]1O[C@H](C(=O)O)[C@@H](O)[C@H](O)[C@H]1O)c1scc(C)c21` [Compound 57, (8S)-8-(chloromethyl)-6-{5-[(8S)-8-(chloromethyl)-4-hydroxy-1-methyl-7,8-dihydro-6H-thieno[3,2-e]indol-6-yl]-5-oxopentanoyl}-1-methyl-7,8-dihydro-6H-thieno[3,2-e]indol-4-yl beta-D-glucopyranosiduronic acid] were, in that order, 9.06, 7.96 and 7.42.
As for `CC(=O)Oc1cc2c(c3c(C)csc13)[C@@H](CCl)CN2C(=O)C12CC(C(=O)N3C[C@H](CCl)c4c3cc(OC(C)=O)c3scc(C)c43)(C1)C2` [Compound 12, (8R,8'R)-(bicyclo[1.1.1]pentane-1,3-dicarbonyl)bis(8-(chloromethyl)-1-methyl-7,8-dihydro-6H-thieno[3,2-e]indole-6,4-diyl) diacetate], the pIC50 in the test on HL60 (leukemia) was 9.74; in test [1], 8.65; in test [2] it was 8.29.
The corresponding values for `Cc1csc2c(O)cc3c(c12)[C@H](CCl)CN3C(=O)CCCC(=O)N1C[C@@H](CCl)c2c1cc(OP(=O)(O)O)c1scc(C)c21` [Compound 61, (8S)-8-(chloromethyl)-6-{5-[(8S)-8-(chloromethyl)-4-hydroxy-1-methyl-7,8-dihydro-6H-thieno[3,2-e]indol-6-yl]-5-oxopentanoyl}-1-methyl-7,8-dihydro-6H-thieno[3,2-e]indol-4-yl dihydrogen phosphate] are 9.09, 7.86 and 7.54.
The like results for `CC(=O)Oc1cc2c(c3c(C)csc13)[C@H](CCl)CN2C(=O)C12CC(C(=O)N3C[C@@H](CCl)c4c3cc(OC(C)=O)c3scc(C)c43)(C1)C2` [Compound 7, (8S,8'S)-(bicyclo[1.1.1]pentane-1,3-dicarbonyl)bis(8-(chloromethyl)-1-methyl-7,8-dihydro-6H-thieno[3,2-e]indole-6,4-diyl) diacetate] were, in that order, above 11.30, 10.66 and 9.73.
`CC(=O)Oc1cc2c(c3c(C)csc13)[C@@H](CCl)CN2C(=O)CCCC(=O)N1C[C@H](CCl)c2c1cc(OC(C)=O)c1scc(C)c21` [Compound 25, (8R,8'R)-glutaroylbis(8-(chloromethyl)-1-methyl-7,8-dihydro-6H-thieno[3,2-e]indole-6,4-diyl) diacetate]: the pIC50 was 7.38 in test [1] and below 7.00 in test [2].

Usually pIC50 stands for the negative decadic logarithm of the IC50, by convention in mol/L.
